Source: the CheMixHub viscosity set
Values joined by “and” are separate entries in the source; they are usually repeats but may differ in a detail not shown here. Equal values may be shown once. ± gives the uncertainty stated by the source.

Key:
[1] = xn = mol fraction of the nth substance listed

OCCO
Settings | viscosity
293.15 K, 101.3 kPa | 21.4 ± 0.6 mPa·s and 21.62 ± 0.88 mPa·s
293.15 K, 101.32 kPa | 19.2 ± 1.3 mPa·s
297.85 K, 101 kPa | 17.7 ± 0.2 mPa·s
298.15 K, 100 kPa | 17.7 ± 3.5 mPa·s and 17.87 ± 0.093 mPa·s
298.15 K, 101.3 kPa | 16.1 ± 2 mPa·s
298.15 K, 101.33 kPa | 15.31 ± 1.6 mPa·s
302.85 K, 101 kPa | 14.4 ± 0.16 mPa·s
303 K, 101 kPa | 15 ± 0.5 mPa·s
303.15 K, 101.33 kPa | 12.24 ± 1.3 mPa·s
307.85 K, 101 kPa | 11.92 ± 0.13 mPa·s
308.15 K, 100 kPa | 11.07 ± 0.074 mPa·s
308.15 K, 101 kPa | 10.97 ± 0.81 mPa·s and 12 ± 0.32 mPa·s and 11.66 ± 0.23 mPa·s
308.15 K, 101.33 kPa | 9.945 ± 1.1 mPa·s
312.95 K, 101 kPa | 9.95 ± 0.11 mPa·s
313.15 K, 101.3 kPa | 9.53 ± 0.39 mPa·s
313.15 K, 101.32 kPa | 8.45 ± 0.58 mPa·s
313.15 K, 101.33 kPa | 9.17 ± 0.29 mPa·s and 9.535 ± 1 mPa·s
317.75 K, 101 kPa | 8.44 ± 0.09 mPa·s
318.15 K, 100 kPa | 9.59 ± 0.09 mPa·s and 7.888 ± 3 mPa·s and 8.126 ± 0.06 mPa·s
318.15 K, 101.3 kPa | 8.08 ± 0.33 mPa·s
318.15 K, 101.33 kPa | 7.68 ± 0.25 mPa·s
322.75 K, 101 kPa | 7.19 ± 0.07 mPa·s
323.15 K, 101.3 kPa | 6.96 ± 0.18 mPa·s and 6.91 ± 0.28 mPa·s

S=C=S
Settings | viscosity
293.15 K, 101 kPa | 0.36 ± 0.01 mPa·s and 0.365 ± 0.004 mPa·s
298.15 K, 101.33 kPa | 0.4077 ± 0.017 mPa·s

CC(C)[C@H](NC(=O)[C@H](C)N)C(=O)O + O
viscosity [mPa·s], [1], 101 kPa
Settings | x1 = 3.62e-05 | x1 = 7.46e-05 | x1 = 0.000109 | x1 = 0.000142 | x1 = 0.0001835 | x1 = 0.0002124 | x1 = 0.0002514 | x1 = 0.0002793 | x1 = 0.0003251 | x1 = 0.0003549
305.15 K | 0.7756 ± 0.0096 | 0.7779 ± 0.0096 | 0.7783 ± 0.0096 | 0.7805 ± 0.0096 | 0.7822 ± 0.0097 | 0.7866 ± 0.0097 | 0.7955 ± 0.0098 | 0.8038 ± 0.0099 | 0.8095 ± 0.01 | 0.8143 ± 0.01
310.15 K | 0.7078 ± 0.0087 | 0.7083 ± 0.0087 | 0.7121 ± 0.0088 | 0.7125 ± 0.0088 | 0.7162 ± 0.0088 | 0.7192 ± 0.0089 | 0.7239 ± 0.0089 | 0.7284 ± 0.009 | 0.7327 ± 0.009 | 0.7351 ± 0.0091
315.15 K | 0.647 ± 0.008 | 0.6501 ± 0.008 | 0.6523 ± 0.0081 | 0.6554 ± 0.0081 | 0.6591 ± 0.0081 | 0.6601 ± 0.0082 | 0.6623 ± 0.0082 | 0.6675 ± 0.0082 | 0.6689 ± 0.0083 | 0.6701 ± 0.0083

CC(O)CN(CC(C)O)CC(C)O (centres undefined) + O
viscosity [mPa·s], [1], 101 kPa
Settings | 303.15 K | 313.15 K | 318.15 K
x1 = 0.005 | – | – | 0.7315 ± 0.0065
x1 = 0.03 | 2.395 ± 0.02 | 1.775 ± 0.015 | –

O=S(=O)([O-])[O-].[Co+2] + O
viscosity, [1], 101.33 kPa
Settings | x1 = 0.000905 | x1 = 0.002718 | x1 = 0.00453 | x1 = 0.006344 | x1 = 0.008159 | x1 = 0.04354 | x1 = 0.05633
298.15 K | – | – | – | – | – | 3.182 ± 0.088 mPa·s | –
308.15 K | 0.7454 ± 0.021 mPa·s | 0.799 ± 0.023 mPa·s | 0.8405 ± 0.024 mPa·s | 0.897 ± 0.025 mPa·s | 0.949 ± 0.026 mPa·s | – | –
313.15 K | 0.6751 ± 0.019 mPa·s | 0.7255 ± 0.021 mPa·s | 0.7615 ± 0.022 mPa·s | 0.814 ± 0.023 mPa·s | 0.8555 ± 0.024 mPa·s | – | –
323.15 K | 0.5699 ± 0.017 mPa·s | 0.6065 ± 0.018 mPa·s | 0.642 ± 0.019 mPa·s | 0.689 ± 0.02 mPa·s | 0.739 ± 0.021 mPa·s | – | 3.091 ± 0.082 mPa·s and 3.091 ± 0.081 mPa·s

CCCCCCCCCCCCCCCCCC + c1ccccc1
[1], 101 kPa, x2 = 0.5
Settings | viscosity [mPa·s]
298 K | 2.123 ± 0.056
318 K | 1.501 ± 0.04

O=CN1CCOCC1 + c1ccccc1
[1], 298.15 K, 101.3 kPa
Settings | viscosity [mPa·s]
x2 = 0.03787 | 6.858 ± 0.048
x2 = 0.07912 | 6.137 ± 0.044
x2 = 0.1309 | 5.329 ± 0.039
x2 = 0.22 | 4.199 ± 0.032
x2 = 0.3483 | 2.992 ± 0.023
x2 = 0.4314 | 2.381 ± 0.019
x2 = 0.5526 | 1.734 ± 0.014
x2 = 0.6351 | 1.413 ± 0.011
x2 = 0.7176 | 1.157 ± 0.01
x2 = 0.7536 | 1.058 ± 0.009
x2 = 0.83 | 0.88 ± 0.007
x2 = 0.894 | 0.767 ± 0.007
x2 = 0.9506 | 0.671 ± 0.006

S=C=S + c1ccccc1
[1], 298.15 K, 101 kPa
Settings | viscosity [mPa·s]
x2 = 0.08675 | 0.376 ± 0.005
x2 = 0.3427 | 0.446 ± 0.006
x2 = 0.7541 | 0.544 ± 0.007

O=C1c2ccccc2C(=O)N1c1ccccc1 + c1ccncc1
Settings | viscosity [mPa·s]
[1], 298.15 K, 101 kPa, x1 = 0.0129 | 0.9606 ± 0.19
